Common to all, as to assay type: in vivo
In series [1] the test system is direct-seedling rice var. Nipponbare. The experiment in a line: Test for phytotoxicity to direct-seedling rice (Test Example 5). Particulars: 50 g ai/ha; spray at two leaf-stage of rice; evaluated 2 weeks after treatment. From the text:
(§1) In a greenhouse seeds of Scirpus juncoides Roxburgh, Monochoria vaginalis Presi, Cyperus difformis L., annual broad-leaved weeds (Lindernia procumbens Philcox, Rotala indica Koehne, Elatine triandra Schk, Ammannia multiflora Roxb.) and rice (var.: Nipponbare and RD-23) were inoculated in a 500 cm^2 pot filled with paddy field soil. Then water was poured to a depth of about 0 to about 0.5 cm, to be a wet condition. At two leaf-stage of rice, a prescribed, diluted solution of the formulation of each active compound, prepared in the same manner as the above-mentioned Test Example 1, was sprayed over the pots with plants. At 2 days after the treatment, the water depth of 3 cm was maintained and the herbicidal effect and rice injury was evaluated at 3 weeks and 2 weeks after the treatment, respectively.
(§2) The herbicidal effect and rice injury were rated 100% in the case of complete death and as 0% in the case of no effect or injury. In case of showing higher than 80% herbicidal effect and less than 20% injury, it is evaluated as practical as rice herbicide.

For series [2], the system named is direct-seedling rice var. RD-23. The series is described as above. Particulars: 50 g ai/ha; spray at two leaf-stage of rice; evaluated 2 weeks after treatment.
Description: as §1, §2

The test system of series [3] is annual broad-leaved weeds. The experiment in a line: Herbicidal effect against paddy field weeds, spray at two leaf-stage of rice (Test Example 5). Particulars: 50 g ai/ha, evaluated 3 weeks after treatment.
Description: as §1, §2

For series [4], the system named is Monochoria vaginalis Presi. Described as above. Conditions: 50 g ai/ha, evaluated 3 weeks after treatment.
Description: as §1, §2

In the next series the test system is Cyperus difformis L. Described as above. Conditions: 50 g ai/ha, evaluated 3 weeks after treatment.
Description: as §1, §2

Series [5] has as its system Scirpus juncoides Roxburgh. The description is as above. Conditions: 50 g ai/ha, evaluated 3 weeks after treatment.
Description: as §1, §2

In series [6] the test system is annual broad-leaved weeds. The experiment in a line: Test for herbicidal effect against paddy field weeds (Test Example 1). Conditions: examined 3 weeks after treatment. The method, then:
(§3) Preparation of Formulation of the Active Compound
(§4) • Carrier: DMF 5 parts by weight • Emulsifier: Benzyloxy polyglycol ether 1 part by weight
(§5) A formulation of an active compound is obtained as an emulsifiable concentrate by mixing 1 part by weight of the active compound with the above-mentioned amount of the carrier and emulsifier. A prescribed amount of the formulation is diluted with water.
(§6) In a green house seeds or tubers of Scirpus juncoides Roxburgh, Monochoria vaginalis Presi, annual broad-leaved weeds (Lindemia procumbens Philcox, Rotala indica Koehne, Elatine triandra Schk, Ammannia multiflora Roxb., etc.), Cyperus serotinus Rottboel were inoculated in a 500 cm^2 pot filled with paddy field soil. Then water was poured to a depth of about 2-3 cm. Five days and 13 days after inoculation, a prescribed, diluted solution of the formulation of each active compound, prepared according to the aforementioned preparation method, was applied to the surface of water. After the treatment the water depth of 3 cm was maintained and the herbicidal effect was examined after 3 weeks from the treatment.
(§7) The herbicidal effect was rated 100% in the case of complete death and as 0% in the case of no herbicidal effect. In case of showing higher than 80% herbicidal effect, it is evaluated as practical as herbicide.

In series [7] the test system is Cyperus serotinus Rottboel. Described as above. Particulars: examined 3 weeks after treatment. As to the method:
as §3, §4, §5, §6, §7

Series [8] relates to Monochoria vaginalis Presi. The series is described as above. Particulars: examined 3 weeks after treatment. As to the method:
as §3, §4, §5, §6, §7

Series [9] concerns Scirpus juncoides Roxburgh. The description is as above. Conditions: examined 3 weeks after treatment. The method, then: as §3, §4, §5, §6, §7
Series [10] relates to sulfonylurea resistant Lindernia procumbens Philcox (collected in Kazo area, Saitama Pref.). Nature of the series: Test for herbicidal effect against sulfonylurea resistant weeds (Test Example 3). Particulars: applied at beginning of emergence, examined 3 weeks after treatment. An excerpt:
(§8) In a green house seeds of Scirpus juncoides Roxburgh (collected in Iwamizawa area, Hokkaido), Lindernia procumbens Philcox (collected in Kazo area, Saitama Pref.), Lindernia procumbens Philcox (collected in Higashi-Hiroshima area, Hiroshima Pref.), Elatine triandra Schk (collected in Kazo area, Saitama Pref.), all of which were confirmed as sulfonylurea resistant, were inoculated in a 20 cm^2 cup filled with paddy field soil. Then water was poured to a depth of about 2 to 3 cm. At the beginning of emergence of each weed, a prescribed, diluted solution of the formulation of each active compound prepared in the same manner as the above-mentioned Test Example 1 was applied to the surface of water. After the treatment the water depth of 3 cm was maintained and the herbicidal effect was examined after 3 weeks from the treatment. The evaluation of the herbicidal effect was conducted in the same manner as the above-mentioned Test Example 1. In case of showing higher than 80% herbicidal effect, it is evaluated as practical as herbicide. In consideration of the possibility that the biological properties including herbicide resistance of the plants grown in different areas might be different, sulfonylurea resistant Lindernia procumbens Philcox collected in two different areas were used in the present tests. The study results with the compounds No. 1, 3, 11 and 17 and the comparative compound No. C-1 as specific examples are shown in the following Table 6.

Series [11] relates to sulfonylurea resistant Scirpus juncoides Roxburgh (collected in Iwamizawa area, Hokkaido). Described as above. Particulars: applied at beginning of emergence, examined 3 weeks after treatment.
Description: as §8

The subject of series [12] is transplanted rice (var. Nipponbare). The experiment in a line: Test for phytotoxicity to transplanted rice (Test Example 4). Particulars: 60 g ai/ha, application 5 days after transplanting, examined 2 weeks after treatment; for phytotoxicity to transplanted rice depth 0 cm: planting depth 0 cm; for phytotoxicity to transplanted rice depth 0.5 cm: planting depth 0.5 cm; for phytotoxicity to transplanted rice depth 2 cm: planting depth 2 cm. As to the method:
The phytotoxicity to transplanted rice was evaluated under the conditions with more shallow planting depths than usual depth of 2 cm, simulating the severe condition for herbicides to cause rice injury in the paddy. In a greenhouse 2 to 2.5 leaf-stage of rice (var. Nipponbare) was transplanted at three different depths, in a 1000 cm^2 pot filled with paddy field soil. Then water was poured to a depth of about 2 to about 3 cm. Five days after transplanting, a prescribed, diluted solution of the formulation of each active compound, prepared in the same manner as the above-mentioned Test Example 1, was applied to the surface of water. After the treatment the water depth of 3 cm was maintained and the rice injury was examined after 2 weeks from the treatment. The rice injury was rated 100% in the case of complete death and as 0% in the case of no injury. In case of showing less than 20% injury, it is evaluated as practical as rice herbicide.

In series [13] the test system is annual broad-leaved weeds. Nature of the series: Test for residual effectiveness against paddy field weeds (Test Example 2). Particulars: 60 g ai/ha; period of maintaining herbicidal effect of higher than 80%. From the text: (§9) In a green house a 1000 cm^2 pot was filled with paddy field soil and water was poured to a depth of about 2 to 3 cm. A prescribed, diluted solution of the above-mentioned Test Example 1, was applied to the surface of water. After the prescribed time after the treatment (just after treatment, 1 week, 2 weeks, 3 weeks, 4 weeks, 5 weeks, 6 weeks and 7 weeks after treatment), seeds or tubers of the weeds to be tested Scirpus juncoides Roxburgh, Monochoria vaginalis Presi, annual broad-leaved weeds (Lindernia procumbens Philcox, Rotala indica Koehne, Elatine triandra Schk, Ammannia multiflora Roxb., etc.), Cyperus serotinus Rottboel and Sagittaria pygmaea Miq. were inoculated. Three weeks after the inoculation each herbicidal effect was examined.
(§10) The evaluation of the residual effectiveness was shown as the period (number of weeks) of maintaining herbicidal effect of higher than 80%, after the evaluation of herbicidal effect had been conducted in the similar manner as the above-mentioned Test Example 1.

Series [14] relates to Monochoria vaginalis Presi. The series is described as above. Particulars: 60 g ai/ha; period of maintaining herbicidal effect of higher than 80%.
Description: as §9, §10

The next series concerns Sagittaria pygmaea Miq. The description is as above. Conditions: 60 g ai/ha; period of maintaining herbicidal effect of higher than 80%.
Description: as §9, §10

The test system of series [15] is Scirpus juncoides Roxburgh. The series is described as above. Particulars: 60 g ai/ha; period of maintaining herbicidal effect of higher than 80%.
Description: as §9, §10

Where [16] appears, read: 30 g ai/ha, application 5 days after inoculation.
Setting [17] is: 30 g ai/ha, application 13 days after inoculation.
Setting [18] is: 60 g ai/ha, application 5 days after inoculation.
[19] abbreviates: 60 g ai/ha, application 13 days after inoculation.

With `COc1cc(OC)nc(C(O)c2cccc(Cl)c2NS(=O)(=O)C(F)F)n1` (centres unmarked) [Compound 3, 2-chloro-6-[(4,6-dimethoxypyrimidin-2-yl)hydroxymethyl]-N-difluoromethanesulfonanilide], in series [1], the “Phytotoxicity to direct-seedling rice Nipponbare” value turned out to be 20%. Further, in [2], the “Phytotoxicity to direct-seedling rice RD-23” value was 10%. The “herbicidal effect broad-leaved weeds” value in [3], in series [6] (setting [16]) and in series [6] (setting [17]) was 100% in each case. In addition, the “herbicidal effect Monochoria vaginalis” value in [4], in series [8] (setting [16]) and in series [8] (setting [17]) was 100% each time. In the series with Cyperus difformis L., the “herbicidal effect Cyperus difformis L.” value was found to be 100%. For the same compound, the “herbicidal effect Scirpus juncoides” value in series [5], in series [9] (setting [16]) and in series [9] (setting [17]) was 100% throughout. For the same compound, the “herbicidal effect Cyperus serotinus” value in [7] (setting [16]) and in [7] (setting [17]) was 100% each time. Besides, the “herbicidal effect against sulfonylurea resistant weeds Lindernia procumbens (collected in Kazo area, Saitama Pref.)” value in series [10] (30 g ai/ha) and in [10] (60 g ai/ha) was 100% in each case. Also, the “herbicidal effect against sulfonylurea resistant weeds Scirpus juncoides (collected in Iwamizawa area, Hokkaido)” value in [11] (30 g ai/ha) and in [11] (60 g ai/ha) was 100% throughout.
Take `COc1cc(OC)nc(Cc2cccc(Cl)c2NS(=O)(=O)C(F)F)n1` [Compound 11, 2-chloro-6-[(4,6-dimethoxypyrimidin-2-yl)methyl]-N-difluoromethanesulfonanilide]: the “Phytotoxicity to direct-seedling rice Nipponbare” value in [1] is 10%. Moreover, the “Phytotoxicity to direct-seedling rice RD-23” value in series [2] turned out to be 10%. Further, the “herbicidal effect broad-leaved weeds” value in series [3], in series [6] (setting [18]) and in series [6] (setting [19]) was 100% throughout. Besides, the “herbicidal effect Monochoria vaginalis” value in series [4], in [8] (setting [18]) and in series [8] (setting [19]) was 100% in each case. In addition, the “herbicidal effect Cyperus difformis L.” value in the series on Cyperus difformis L. was found to be 100%. Moreover, the “herbicidal effect Scirpus juncoides” value was 90% in series [5], 100% in series [9] (setting [18]) and 100% in series [9] (setting [19]). The “phytotoxicity to transplanted rice depth 0 cm” value in [12] stood at 15%. The “phytotoxicity to transplanted rice depth 0.5 cm” value in series [12] came to 15%. In addition, in series [12], the “phytotoxicity to transplanted rice depth 2 cm” value is 10%. Also, the “herbicidal effect Cyperus serotinus” value was 100% in series [7] (setting [18]) and 95% in series [7] (setting [19]). In addition, the “herbicidal effect against sulfonylurea resistant weeds Lindernia procumbens (collected in Kazo area, Saitama Pref.)” value in series [10] (30 g ai/ha) and in [10] (60 g ai/ha) was 100% in each case. In addition, the “herbicidal effect against sulfonylurea resistant weeds Scirpus juncoides (collected in Iwamizawa area, Hokkaido)” value in [11] (30 g ai/ha) and in series [11] (60 g ai/ha) was 100% throughout. Moreover, the “period showing sufficient residual herbicidal effectiveness broad-leaved weeds” value in series [13] is recorded as 4 week. Further, the “period showing sufficient residual herbicidal effectiveness Monochoria vaginalis” value in series [14] was 3 week. Further, the “period showing sufficient residual herbicidal effectiveness Sagittaria pygmaea” value with Sagittaria pygmaea Miq. is recorded as 4 week. In addition, the “period showing sufficient residual herbicidal effectiveness Scirpus juncoides” value in series [15] was 4 week.
Regarding `COc1cc(OC)nc(C(=O)c2cccc(F)c2NS(=O)(=O)C(F)F)n1` [Compound 17, 2-fluoro-6-[(4,6-dimethoxypyrimidin-2-yl)carbonyl]-N-difluoromethanesulfonanilide], the “herbicidal effect broad-leaved weeds” value in [6] (setting [16]) and in [6] (setting [17]) was 100% in each case. Moreover, the “herbicidal effect Cyperus serotinus” value in series [7] (setting [16]) and in series [7] (setting [17]) was 100% in each case. For the same compound, the “herbicidal effect Monochoria vaginalis” value in [8] (setting [16]) and in series [8] (setting [17]) was 100% throughout. The “herbicidal effect Scirpus juncoides” value in [9] (setting [16]) and in [9] (setting [17]) was 100% each time. The “herbicidal effect against sulfonylurea resistant weeds Lindernia procumbens (collected in Kazo area, Saitama Pref.)” value in [10] (30 g ai/ha) is 95%; in [10] (60 g ai/ha) it was 100%. In addition, the “herbicidal effect against sulfonylurea resistant weeds Scirpus juncoides (collected in Iwamizawa area, Hokkaido)” value in series [11] (30 g ai/ha) and in series [11] (60 g ai/ha) was 100% throughout.
For the compound `COCc1cccc(C(O)c2nc(OC)cc(OC)n2)c1NS(=O)(=O)C(F)F` (centres unmarked) [Compound C-2, reference compound], the “Phytotoxicity to direct-seedling rice Nipponbare” value in [1] is given as 50%. In addition, the “Phytotoxicity to direct-seedling rice RD-23” value in series [2] turned out to be 30%. Also, the “herbicidal effect broad-leaved weeds” value in series [3] is 100%. Besides, the “herbicidal effect Monochoria vaginalis” value in series [4] came out at 100%. Besides, the “herbicidal effect Cyperus difformis L.” value with Cyperus difformis L. is 100%. For the same compound, in series [5], the “herbicidal effect Scirpus juncoides” value is given as 90%. In addition, in series [12], the “phytotoxicity to transplanted rice depth 0 cm” value was 40%, the “phytotoxicity to transplanted rice depth 0.5 cm” value was 30% and the “phytotoxicity to transplanted rice depth 2 cm” value is given as 30%. For the same compound, in series [13], the “period showing sufficient residual herbicidal effectiveness broad-leaved weeds” value is 2 week. Also, in series [14], the “period showing sufficient residual herbicidal effectiveness Monochoria vaginalis” value is 2 week. Moreover, in the series on Sagittaria pygmaea Miq., the “period showing sufficient residual herbicidal effectiveness Sagittaria pygmaea” value was 3 week. In addition, the “period showing sufficient residual herbicidal effectiveness Scirpus juncoides” value in series [15] is on record as 2 week.
